Assay results from patent US20260293937A1, “SHRIMP FEED AND METHODS OF USE THEREOF” (Organicin Scientific, Inc., priority 2023, published 2026).
No end group written: not given here.

Columns and labels:
[1] = test system: brine shrimp; experiment: Pre- and post-dialysis toxicity assay and Nisin/EDTA toxicity assay (Example 9); assay type: in vivo, Artemia salina; settings: after 48-hour dialysis; example in present tense
Description: Utilizing materials, methods and experimental designs as described in Examples 1-6, Nisin Z is subjected to a 48-hour dialysis treatment to reduce impurities. The toxicity assay involves exposing brine shrimp to treated and untreated samples of Nisin Z, both alone and in combination with EDTA at a concentration of […].

[2] = test system: brine shrimp (Artemia salina); experiment: Brine shrimp toxicity of EDTA (Example 5); assay type: in vivo; settings: for mortality at 20000 µM: Artemia salina, 20 mM; for mortality: concentrations less than or equal to 400 µM
Description: This Example describes the toxicity and efficacy of EDTA in reducing pathogenesis and promoting survival of shrimp. Brine shrimp (Artemia salina) were utilized as a model organism to simulate potential impacts on Pacific whiteleg shrimp (Penaeus vannamei).
Artemia salina (a species of brine shrimp) were used. Additional materials included: ethylenediaminetetraacetic acid (EDTA; 99% pure) powder (USB Corporation Instant Ocean (Instant Ocean Spectrum Brands. Blacksburg, VA); and Artemia salina eggs were used.
Artemia salina eggs were hatched in artificial seawater (Instant Ocean) under controlled conditions. Newly hatched brine shrimp were then exposed to varying concentrations of EDTA in experimental tanks. A separate set of tanks was used for each concentration of EDTA (20 mM, 400 uM, 200 uM, and 100 uM).
Control tanks treated with saline water were prepared to observe the natural behavior and survival rate of Artemia salina without EDTA exposure.
Brine shrimp were divided into different tanks for exposure to varying concentrations (20 mM, 400 uM, 200 uM, and 100 uM) of EDTA.
Mortality and behavior of brine shrimp were recorded at 24 and 48 hours post-exposure.

[3] = Suspension in dH2O; assay type: physicochemical
Method: (§1) Nisin variants (Nisin A, Nisin Z, and ImmuCell Nisin A) were dissolved in either citric acid buffer (CAB, pH 3.4) for Nisin A or dH2O for Nisin Z to make a stock solution of 4.86 mg/mL. Serial dilutions were performed to achieve the different concentrations (4.86 mg/mL to 0.005 mg/mL) for the experiments.

[4] = test system: Staphylococcus aureus (SA1); experiment: Zone of inhibition on agar plates (Example 4); assay type: cell-based; settings: for concentration with no killing / concentration with reduced growth / killing down to a concentration: pre-purification
Method: (§2) ImmuCell Nisin A (96% pure) suspended in citric acid buffer (pH-3.4) at 4.86 mg/mL (ImmuCell, Portland, ME); Nisin A (Nissen®-A; 10% pure powder, Siveele, Breda, Netherlands): Nisin Z (26.7% pure) powder (Handry, Brussels, Belgium): Citric Acid Buffer (CAB) pH=3.4; Distilled H2O (dH2O); Instant Ocean (Instant Ocean Spectrum Brands, Blacksburg. VA): Artemia salina eggs: 60 mm Petri Dishes; Laboratory control strains of Staphylococcus aureus and Escherichia coli (“SA1” and “EC-18,” respectively): 15 mL Falcon Tubes; and Slide-A-Lyzer Dialysis Flask, 2K MWCO, 250 mL (Thermo Scientific, Rockford, IL) were used.
as §1
(§3) Parallel to the toxicity tests, antibacterial efficacy was evaluated by applying Nisin solutions (before and after basic purification via Slide-A-Lyzer Dialysis) onto agar plates pre-inoculated with laboratory control strains Staphylococcus aureus (“SA1”) and Escherichia coli (“EC-18”). Zones of inhibition were measured 24 hours post-incubation at 37° C.
(§4) Mortality and behavior of the brine shrimp were recorded at 24 and 48 hours post-exposure. For the antimicrobial tests, the diameter of inhibition zones on agar plates containing the laboratory control strains were measured and recorded.

[5] = test system: Escherichia coli (EC-18); experiment: Zone of inhibition on agar plates (Example 4); assay type: cell-based; settings: for concentration with no killing / concentration with reduced growth / killing down to a concentration: pre-purification
Method: as §2, §1, §3, §4

[6] = test system: brine shrimp (Artemia salina); experiment: Brine shrimp toxicity of Nisin formulations (Example 4); assay type: in vivo; settings: for efficacy in reducing mortality in shrimp: Nisin Z (26.7% pure) compared with Nisin A (10% pure)
Method: This Example describes the efficacy of various Nisins: Nisin Z, Nisin A, and ImmuCell Nisin A. This experiment assessed the safety and antimicrobial efficacy of various Nisin formulations in treating Vibrio parahaemolyticus infections, a common pathogen in aquaculture environments. Brine shrimp (Artemia salina) were utilized as a model organism to simulate potential impacts on Pacific whiteleg shrimp (Penaeus vannamei).
as §1
Artemia salina eggs were hatched in artificial seawater (Instant Ocean) under controlled conditions. Newly hatched brine shrimp were then exposed to varying concentrations of each Nisin solution in experimental tanks. A separate set of tanks was used for each type of Nisin formulation.
Control tanks (treated with either CAB or saline water) were prepared to observe the natural behavior and survival rate of Artemia salina without Nisin exposure.
Brine shrimp were divided into different tanks for exposure to varying concentrations (2.43 mg/mL, 0.608 mg/mL, 0.152 mg/mL, and 0.038 mg/mL) of Nisin A, Nisin Z, and ImmuCell Nisin A.
as §4

[7] = test system: E. coli (ECY); experiment: Zone of inhibition, Nisin with and without EDTA (Example 6); assay type: cell-based, Escherichia coli; settings: 4.05 mg/mL Nisin in CAB, with or without 20.8 mM EDTA
Method: (§5) ImmuCell Nisin A (96% pure) suspended in citric acid buffer (pH 3.4) at 4.05 mg/mL (ImmuCell, Portland, ME); Nisin A (Nissen®-A; 10% pure powder, Siveele, Breda, Netherlands): Citric Acid Buffer (CAB) pH=3.4; 60 mm Petri Dishes; Laboratory control strain of Staphylococcus aureus (“SAI”), experimental strains of Escherichia coli (“ECY” and “ECX”) and Vibrio parahaemolyticus (“VPY”, and “VPX”); and ethylenediaminetetraacetic acid (EDTA: 99% pure) powder (USB Corporation) were used.
(§6) On the day before the experiment, stocks of Vibrio parahaemolyticus, Staphylococcus aureus, and Escherichia coli were prepared. An inoculation loop was sterilized, cooled, and used to extract cells, which were then cultured in nutrient broth at 37° C. for 16 to 20 hours. The bacterial density was adjusted to approximately 10^7 to 10^8 CFU/mL. Subsequently, 100 μL of each culture, normalized to about 10^6 to 10^7 CFU/mL, was evenly spread on agar plates using sterile glass beads, creating a uniform bacterial lawn. Four identical lawns were prepared for each bacterial type to ensure replicative testing of treatments.
(§7) Two forms of Nisin, 96% pure Nisin (Immucell) and 10% pure Niseen (Sivele), were prepared in citric acid buffer (CAB) at a concentration of 4.05 mg/mL. To assess synergistic effects, EDTA was added to each Nisin solution to achieve a final concentration of 20.8 mM.
(§8) […] of each treatment formulation were spotted onto the prepared bacterial lawns. These plates were then incubated at 37° C. for 16 to 20 hours to allow for bacterial growth and ZOI formation.
(§9) The ZOI were observed and measured in millimeters to measure the degree of bacterial growth suppression.

[8] = test system: E. coli (ECX); experiment: as above; assay type: cell-based, Escherichia coli; settings: 4.05 mg/mL Nisin in CAB, with or without 20.8 mM EDTA
Method: as §5, §6, §7, §8, §9

[9] = test system: Staphylococcus aureus (SA1); experiment: as above; assay type: cell-based; settings: 4.05 mg/mL Nisin in CAB, with or without 20.8 mM EDTA
Method: as §5, §6, §7, §8, §9

[10] = test system: Vibrio parahaemolyticus (VPY); experiment: as above; assay type: cell-based; settings: 4.05 mg/mL Nisin in CAB, with or without 20.8 mM EDTA
Method: as §5, §6, §7, §8, §9

[11] = test system: Vibrio parahaemolyticus (VPX); experiment: as above; assay type: cell-based; settings: 4.05 mg/mL Nisin in CAB, with or without 20.8 mM EDTA
Method: as §5, §6, §7, §8, §9

[12] = highly acidic conditions, high temperatures, proteases; cited from earlier work
[13] = Retention by 2 kDa dialysis membrane; assay type: physicochemical; settings: water sampled at 4 and 24 hours
Method: as §3
Next, the zones of inhibition for Nisin Z pre- and 48 hours post-2 kDa dialysis membrane purification were spotted onto a lawn of a control strain (SA1). […] Water samples were taken to test if any drug was lost at the 4 hour mark and again at the 24 hour mark. […] To remove additional contaminants, additional filtration is performed to purify Nisin Z.

[14] = test system: Vibrio parahaemolyticus; experiment: Brine shrimp efficacy challenge trial with and without Nisin (Example 7); assay type: in vivo, Artemia salina; settings: vs control group exposed to Vibrio parahaemolyticus without Nisin Z; example in present tense
Method: Brine shrimp (Artemia salina) are used and are prepared according to methods detailed in Examples 1-6. Additional materials, methods and experimental design may be similar to that described in Examples 1-6. A virulent strain of Vibrio parahaemolyticus is cultured to a concentration of about […], which is used for the challenge. Shrimp groups are divided: one group receives no treatment (as control) and the other group set receives brine infused with Nisin Z (concentration as determined optimal in prior experiments).

[15] = unpurified, in dH2O, 0.608 mg/mL
[16] = all dilutions 4.86 mg/mL-0.005 mg/mL

Compound	suspension with dH2O as solvent [3]	concentration with no killing [4] [mg/mL]	concentration with reduced growth [4] [mg/mL]	killing down to a concentration [4] [mg/mL]	concentration with no killing [5] [mg/mL]	concentration with reduced growth [5] [mg/mL]	killing down to a concentration [5] [mg/mL]	efficacy in reducing mortality in shrimp [6]	mortality [6, 15]	Diameter (zone of inhibition) [7] [mm]	Diameter (zone of inhibition) [8] [mm]	Diameter (zone of inhibition) [9] [mm]	Diameter (zone of inhibition) [10] [mm]	Diameter (zone of inhibition) [11] [mm]	further results
post-dialyzed Nisin Z: Nisin Z subjected to a 48-hour dialysis treatment to reduce impurities (ITSISLCTPGCKTGALMGCNMKTATCNCSIHVSK; cysteine pairing not given here; also: lantibiotic nisin-Z, modifications not given here; UniProt P29559 24-57, looked up)															toxicity [1]: reduced toxicity
O=C(O)CN(CCN(CC(=O)O)CC(=O)O)CC(=O)O [EDTA, ethylenediaminetetraacetic acid]															mortality at 20000 µM ([2]; 24 hours post-exposure): 100%; mortality at 20000 µM ([2]; 48 hours post-exposure): 100%; mortality ([2]; 24 hours post-exposure): zero mortality; mortality ([2]; 48 hours post-exposure): zero mortality
Nisin A: Nisin A (Nissen®-A; 10% pure powder, Siveele, Breda, Netherlands) (ITSISLCTPGCKTGALMGCNMKTATCHCSIHVSK; cysteine pairing not given here; also: lantibiotic, modifications not placed; UniProt P13068 24-57, looked up)	did not go fully into suspension	0.005	0.009	0.019	0.005	0.009	0.019	comparable efficacy	drastic increase in mortality	4	8	13	0	4	mortality ([6]; unpurified, in dH2O, 0.152 mg/mL): showed mortality
aureocin A53															stability [12]: stable under highly acidic conditions, high temperatures, and is not affected by proteases
ImmuCell Nisin A: ImmuCell Nisin A (96% pure) suspended in citric acid buffer (ImmuCell, Portland, ME) (ITSISLCTPGCKTGALMGCNMKTATCHCSIHVSK; cysteine pairing not given here; also: lantibiotic, modifications not placed; UniProt P13068 24-57, looked up)										6	10	13	4	4	zones of inhibition [4, 16]: clear zones of inhibition; zones of inhibition [5, 16]: clear zones of inhibition
Nisin Z: Nisin Z (26.7% pure) powder (Handry, Brussels, Belgium) (ITSISLCTPGCKTGALMGCNMKTATCNCSIHVSK; not fully specified (residues 2, 5, 33, bridges); cysteine pairing not given here; UniProt P29559 24-57, looked up)	went into suspension fully	0.005	0.009	0.019	0.005	0.009	0.019	comparable efficacy	drastic increase in mortality						zones of inhibition pre- and 48 hours post-dialysis ([4]; 2 kDa dialysis membrane purification): same sized zones; loss of Nisin into the dH2O [13]: no loss of Nisin; mortality rates [14]: significantly lower mortality rates; toxicity ([6]; unpurified, in dH2O, 0.152 mg/mL to 0.038 mg/mL, 48 hours): no toxicity
